US9492471B2, “Methods of treating a disease or disorder associated with Bruton'S Tyrosine Kinase” (Celgene Avilomics Research, Inc., priority 2013, dated 2016)
Read-outs that look alike come from different tables or passages of the source.

Legend:
Experiment in all cases: HotSpot kinase profiling
Assay type in all cases: biochemical
[1] = biological target: T1, CK1g2 (Homo sapiens, UniProt P78368)
T1 construct: purchased Reaction Biology Corp
How it was run: (§1)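 Activity is measured by radiolabel transfer captured on P81 filters after a 2 h room-temperature reaction of kinase, substrate and cofactors. Values are percent inhibition against DMSO.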

[2] = biological target: T2, FES/FPS (Homo sapiens, UniProt P07332)
T2 construct: purchased Reaction Biology Corp
T2 sequence (P07332 whole entry): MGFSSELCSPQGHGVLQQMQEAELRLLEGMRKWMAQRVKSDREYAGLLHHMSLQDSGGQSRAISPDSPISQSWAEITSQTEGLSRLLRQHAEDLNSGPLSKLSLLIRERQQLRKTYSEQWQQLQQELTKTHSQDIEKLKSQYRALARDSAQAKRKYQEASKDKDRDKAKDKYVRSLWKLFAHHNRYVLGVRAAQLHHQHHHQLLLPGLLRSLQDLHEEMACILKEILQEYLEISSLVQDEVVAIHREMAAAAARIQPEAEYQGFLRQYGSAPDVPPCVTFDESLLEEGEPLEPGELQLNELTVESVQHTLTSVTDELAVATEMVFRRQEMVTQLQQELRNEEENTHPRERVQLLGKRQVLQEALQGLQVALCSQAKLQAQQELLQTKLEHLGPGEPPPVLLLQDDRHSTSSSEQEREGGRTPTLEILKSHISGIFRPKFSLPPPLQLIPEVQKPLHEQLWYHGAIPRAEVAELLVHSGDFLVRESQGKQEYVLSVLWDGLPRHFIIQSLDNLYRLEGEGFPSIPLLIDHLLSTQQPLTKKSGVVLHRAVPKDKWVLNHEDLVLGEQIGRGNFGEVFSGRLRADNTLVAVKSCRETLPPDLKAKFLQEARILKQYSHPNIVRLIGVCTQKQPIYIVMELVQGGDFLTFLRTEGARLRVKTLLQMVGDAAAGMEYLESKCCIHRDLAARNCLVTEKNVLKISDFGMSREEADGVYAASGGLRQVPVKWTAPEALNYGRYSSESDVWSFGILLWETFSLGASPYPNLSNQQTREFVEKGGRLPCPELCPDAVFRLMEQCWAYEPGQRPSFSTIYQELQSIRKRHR
How it was run: as §1

[3] = biological target: T3, GRK3 (Homo sapiens, UniProt P35626)
T3 construct: purchased Reaction Biology Corp
T3 sequence (P35626 1-688): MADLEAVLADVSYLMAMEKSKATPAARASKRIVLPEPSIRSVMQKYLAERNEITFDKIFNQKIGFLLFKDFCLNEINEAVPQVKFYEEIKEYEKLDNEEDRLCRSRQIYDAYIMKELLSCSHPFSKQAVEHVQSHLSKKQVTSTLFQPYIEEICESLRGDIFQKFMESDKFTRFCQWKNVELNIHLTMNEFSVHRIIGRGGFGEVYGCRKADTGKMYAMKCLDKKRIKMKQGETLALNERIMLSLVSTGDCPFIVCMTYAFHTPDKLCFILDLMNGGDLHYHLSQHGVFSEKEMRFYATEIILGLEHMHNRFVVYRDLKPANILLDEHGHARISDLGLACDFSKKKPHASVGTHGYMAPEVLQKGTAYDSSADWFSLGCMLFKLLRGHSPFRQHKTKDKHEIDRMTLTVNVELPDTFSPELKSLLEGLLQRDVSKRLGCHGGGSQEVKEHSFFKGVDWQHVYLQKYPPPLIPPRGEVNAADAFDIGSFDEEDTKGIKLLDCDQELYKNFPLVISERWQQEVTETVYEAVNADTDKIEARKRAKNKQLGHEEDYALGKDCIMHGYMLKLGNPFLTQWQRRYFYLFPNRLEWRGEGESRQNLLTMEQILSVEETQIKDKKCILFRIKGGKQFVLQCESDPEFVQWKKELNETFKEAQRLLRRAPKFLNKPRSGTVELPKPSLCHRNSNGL
How it was run: as §1

[4] = biological target: T4, JNK2 (Homo sapiens, UniProt P45984)
T4 construct: purchased Reaction Biology Corp
T4 sequence (P45984 whole entry): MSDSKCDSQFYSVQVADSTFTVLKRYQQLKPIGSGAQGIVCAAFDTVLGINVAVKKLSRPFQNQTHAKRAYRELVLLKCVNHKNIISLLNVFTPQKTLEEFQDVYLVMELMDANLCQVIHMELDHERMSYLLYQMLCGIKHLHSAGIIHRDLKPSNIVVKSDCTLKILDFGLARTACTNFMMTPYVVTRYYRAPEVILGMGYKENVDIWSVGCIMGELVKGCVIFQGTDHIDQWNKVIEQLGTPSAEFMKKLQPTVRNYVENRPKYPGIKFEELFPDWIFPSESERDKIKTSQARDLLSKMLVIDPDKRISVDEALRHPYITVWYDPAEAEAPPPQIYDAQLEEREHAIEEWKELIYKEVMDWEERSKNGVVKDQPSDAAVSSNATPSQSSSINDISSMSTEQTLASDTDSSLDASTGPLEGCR
How it was run: as §1

[5] = biological target: T5, LCK2/ICK (Homo sapiens, UniProt Q9UPZ9)
T5 construct: purchased Reaction Biology Corp
T5 sequence (Q9UPZ9 1-632): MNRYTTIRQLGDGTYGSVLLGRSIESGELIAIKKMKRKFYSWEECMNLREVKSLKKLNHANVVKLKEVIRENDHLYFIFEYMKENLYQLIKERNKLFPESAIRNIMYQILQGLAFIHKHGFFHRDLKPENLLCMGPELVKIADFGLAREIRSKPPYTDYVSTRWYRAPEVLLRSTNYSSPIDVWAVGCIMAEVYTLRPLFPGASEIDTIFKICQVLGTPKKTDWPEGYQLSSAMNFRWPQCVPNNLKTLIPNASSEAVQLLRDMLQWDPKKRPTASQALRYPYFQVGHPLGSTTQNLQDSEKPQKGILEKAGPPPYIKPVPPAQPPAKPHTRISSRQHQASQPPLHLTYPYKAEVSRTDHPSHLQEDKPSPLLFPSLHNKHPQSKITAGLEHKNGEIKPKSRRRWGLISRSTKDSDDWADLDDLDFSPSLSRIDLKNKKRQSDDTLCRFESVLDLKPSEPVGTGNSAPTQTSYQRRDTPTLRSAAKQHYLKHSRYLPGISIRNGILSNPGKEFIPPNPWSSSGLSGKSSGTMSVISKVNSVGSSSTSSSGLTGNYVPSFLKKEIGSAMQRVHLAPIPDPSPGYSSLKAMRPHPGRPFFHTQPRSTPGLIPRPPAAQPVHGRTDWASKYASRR
How it was run: as §1

[6] = biological target: T6, MSSK1/STK23 (Homo sapiens, UniProt Q9UPE1)
T6 construct: purchased Reaction Biology Corp
T6 sequence (Q9UPE1 whole entry): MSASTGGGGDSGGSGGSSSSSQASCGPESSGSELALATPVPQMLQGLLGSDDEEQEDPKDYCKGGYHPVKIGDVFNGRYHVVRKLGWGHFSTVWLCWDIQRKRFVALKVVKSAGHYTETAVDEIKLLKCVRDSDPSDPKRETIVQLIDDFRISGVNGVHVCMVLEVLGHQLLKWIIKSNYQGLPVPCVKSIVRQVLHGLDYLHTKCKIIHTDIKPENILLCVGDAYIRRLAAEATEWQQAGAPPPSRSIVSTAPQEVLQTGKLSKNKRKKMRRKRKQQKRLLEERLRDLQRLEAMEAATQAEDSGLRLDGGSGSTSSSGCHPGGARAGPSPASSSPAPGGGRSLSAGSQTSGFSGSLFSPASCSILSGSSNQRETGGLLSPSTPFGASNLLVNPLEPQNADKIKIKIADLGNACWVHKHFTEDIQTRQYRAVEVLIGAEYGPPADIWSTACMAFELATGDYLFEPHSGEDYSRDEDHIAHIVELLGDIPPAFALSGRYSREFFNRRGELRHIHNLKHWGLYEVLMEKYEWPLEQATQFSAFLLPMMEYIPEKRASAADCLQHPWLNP
How it was run: as §1

[7] = biological target: T7, PDGFRb (Homo sapiens, UniProt P09619)
T7 construct: purchased Reaction Biology Corp
T7 sequence (P09619 33-1106): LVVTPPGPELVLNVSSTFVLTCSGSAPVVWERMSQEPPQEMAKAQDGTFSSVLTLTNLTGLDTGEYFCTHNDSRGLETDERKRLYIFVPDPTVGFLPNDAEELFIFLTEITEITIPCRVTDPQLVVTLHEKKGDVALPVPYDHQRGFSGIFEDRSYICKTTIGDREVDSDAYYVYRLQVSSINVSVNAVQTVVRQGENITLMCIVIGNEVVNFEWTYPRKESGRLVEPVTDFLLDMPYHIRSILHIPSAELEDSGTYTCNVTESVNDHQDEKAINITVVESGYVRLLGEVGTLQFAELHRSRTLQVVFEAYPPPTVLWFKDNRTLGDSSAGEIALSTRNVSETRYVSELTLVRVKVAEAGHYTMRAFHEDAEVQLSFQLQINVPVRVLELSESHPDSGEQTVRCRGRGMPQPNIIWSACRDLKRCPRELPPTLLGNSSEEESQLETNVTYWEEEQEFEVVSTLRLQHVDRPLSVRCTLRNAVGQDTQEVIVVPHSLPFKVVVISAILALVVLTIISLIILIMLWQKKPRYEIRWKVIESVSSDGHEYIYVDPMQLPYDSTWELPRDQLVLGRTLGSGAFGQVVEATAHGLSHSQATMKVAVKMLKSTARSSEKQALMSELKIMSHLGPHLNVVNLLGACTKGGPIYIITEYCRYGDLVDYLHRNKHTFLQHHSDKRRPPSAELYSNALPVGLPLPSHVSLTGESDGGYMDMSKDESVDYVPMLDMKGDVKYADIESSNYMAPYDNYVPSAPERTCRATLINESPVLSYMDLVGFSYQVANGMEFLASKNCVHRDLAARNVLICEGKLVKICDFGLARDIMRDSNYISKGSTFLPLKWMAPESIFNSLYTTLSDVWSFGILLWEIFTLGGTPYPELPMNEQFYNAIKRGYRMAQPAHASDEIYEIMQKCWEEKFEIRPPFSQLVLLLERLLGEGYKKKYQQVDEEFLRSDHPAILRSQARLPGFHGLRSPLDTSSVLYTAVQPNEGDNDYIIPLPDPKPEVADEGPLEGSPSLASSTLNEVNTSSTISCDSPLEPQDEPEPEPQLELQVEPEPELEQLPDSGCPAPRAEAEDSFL
How it was run: as §1

[8] = biological target: T8, ZIPK/DAPK3 (Homo sapiens, UniProt O43293)
T8 construct: purchased Reaction Biology Corp
T8 sequence (O43293 whole entry): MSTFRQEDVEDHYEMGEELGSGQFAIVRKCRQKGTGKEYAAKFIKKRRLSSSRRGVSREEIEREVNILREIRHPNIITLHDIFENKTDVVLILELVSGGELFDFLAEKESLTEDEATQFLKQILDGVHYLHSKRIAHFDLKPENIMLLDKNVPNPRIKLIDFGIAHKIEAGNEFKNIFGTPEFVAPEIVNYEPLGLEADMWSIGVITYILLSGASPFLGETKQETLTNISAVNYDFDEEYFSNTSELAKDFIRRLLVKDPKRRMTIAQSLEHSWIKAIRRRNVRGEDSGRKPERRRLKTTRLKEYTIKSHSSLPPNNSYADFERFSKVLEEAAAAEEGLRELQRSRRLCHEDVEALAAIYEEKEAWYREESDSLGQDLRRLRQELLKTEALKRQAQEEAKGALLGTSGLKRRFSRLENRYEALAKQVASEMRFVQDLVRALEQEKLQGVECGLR
How it was run: as §1

[9] = read-out: % Enzyme Activity (relative to DMSO controls) Run 1
[10] = read-out: % Enzyme Activity (relative to DMSO controls) Run 2

T1 sequence (P78368 whole entry): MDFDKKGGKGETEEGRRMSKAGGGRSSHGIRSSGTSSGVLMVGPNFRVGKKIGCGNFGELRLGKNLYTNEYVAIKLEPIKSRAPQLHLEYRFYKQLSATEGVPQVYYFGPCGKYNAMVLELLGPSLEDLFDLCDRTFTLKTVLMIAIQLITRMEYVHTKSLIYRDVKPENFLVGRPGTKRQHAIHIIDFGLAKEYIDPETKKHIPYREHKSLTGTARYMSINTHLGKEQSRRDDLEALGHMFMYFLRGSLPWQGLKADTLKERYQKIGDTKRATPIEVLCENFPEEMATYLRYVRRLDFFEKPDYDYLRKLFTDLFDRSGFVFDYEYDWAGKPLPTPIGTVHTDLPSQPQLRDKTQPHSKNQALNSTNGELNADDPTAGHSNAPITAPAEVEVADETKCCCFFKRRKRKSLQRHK

`C=CC(=O)Nc1cccc(Nc2nc(Nc3ccc(OCCOC)c(F)c3)ncc2F)c1` [Compound 2] gave an inhibition at 3 µM [1] of 12.6%, a remaining activity at 3 µM [1, 9] of 89.1% and a remaining activity at 3 µM [1, 10] of 85.7%. It also gave an inhibition at 3 µM [2] of 35%, a remaining activity at 3 µM [2, 9] of 64% and a remaining activity at 3 µM [2, 10] of 66%. The inhibition at 3 µM [3] was -0.2%, the remaining activity at 3 µM [3, 9] was 99.5% and the remaining activity at 3 µM [3, 10] was 101%. For the same compound, the inhibition at 3 µM [4] was 6.22%, the remaining activity at 3 µM [4, 9] was 92.5% and the remaining activity at 3 µM [4, 10] was 95.1%. For the same compound, the inhibition at 3 µM [5] was 1.98%, the remaining activity at 3 µM [5, 9] was 101% and the remaining activity at 3 µM [5, 10] was 95.1%. The inhibition at 3 µM [6] was -6.62%, the remaining activity at 3 µM [6, 9] was 108% and the remaining activity at 3 µM [6, 10] was 105%. The inhibition at 3 µM [7] was 52.4%, the remaining activity at 3 µM [7, 9] was 47.7% and the remaining activity at 3 µM [7, 10] was 47.4%. It also gave an inhibition at 3 µM [8] of -11.3%, a remaining activity at 3 µM [8, 9] of 109% and a remaining activity at 3 µM [8, 10] of 113%.
